According to paper PMC4620497 (Scientific Reports, 2015):
pIC50, pKd: −log10 of the molar value.

Key:
PAK1 [1] = target: T1, PAK1 (Homo sapiens, UniProt Q13153); parameters: method as in earlier work; conditions: Table S1; cited from earlier work
PAK1 [2] = target: T1, PAK1; assay: KINOMEscan panel screen; format: binding; conditions: read-out: Percent Control(%)
[3] = tested on: β-catenin target genes in primary AML cells; assay: Real-time qPCR of β-catenin target genes in primary AML cells; format: cell-based, human
From the text: To confirm the Wnt/β-catenin inhibition effect of SKLB-677, we examined the protein levels of total β-catenin and non-phospho-β-catenin (active β-catenin); the non-phospho β-catenin other than the phosphorylated β-catenin enters the cell nucleus and plays the gene regulation function. […] We further examined the expressions of β-catenin target genes MYC, CCND1, and NKD1 by real-time qPCR. […] Finally, the real-time qPCR assays were used again to inspect the influence of SKLB-677 on Wnt/β-catenin signaling in the primary AML cells.
Total RNA of cell samples and tumor samples was extracted using RNAsimple total RNA kit (TIANGEN) according to the manufacturer’s instructions. cDNA was generated using the iScript^TMcDNA Synthesis Kit (Bio-Rad), and the RT-PCR reactions were performed using SsoAdvanced SYBR Green Supermix (Bio-Rad). The reaction consisted of 40 cycles of denaturation at 95 °C for 5 s and annealing/extension for 30s at 60 °C. The primer sequences are listed in Supplementary Table S7.

KG-1 SP cells = assay: Hoechst 33342 side population (SP) cell assay; format: cell-based, human; conditions: 5 μM, 48 h; vehicle 3.1%
From the text: (§1) Flow cytometry and Hoechst 33342 dye efflux assays were used to examine the possible influences of SKLB-677 on leukemia SP cells. This method is based on the findings that stem cells and early progenitors are able to pump out Hoechst via the ATP-Binding Cassette (ABC) transporters. This property allows the observation of a cell population (called side population) that has low Hoechst fluorescence in the blue and red regions of the spectrum. In this study, the Hoechst SP cell assays were performed with human AML MV4-11 and KG-1 cells, as well as primary AML PBMCs. […] As shown in Fig. 4a and Supplementary Fig. S6, MV4-11, KG-1, and primary AML PBMCs contained about 22.3%, 3.1%, and 0.5% SP cells, respectively.
(§2) Supplementary Mat eri al and Methods […]
(§3) Reactions were monitored by thin la yer chrom atograph y (TLC) on M erck silica gel 60 F-254 thin la yer plates. 1H NMR and 13C NMR spectra were recorded on a Bruker AV -400 spectrometer at 400 MHz and 100 MHz, respectivel y. […]
(§4) Lo w -resolution and high-resolution mass spectral (MS) data were determined on an Agilent 1100 Series LCMS with UV detection at 254nm in low -reson ance electrospray mode (ESI). All final compounds were purified to >95% purity, as determined b y hi gh- performance liquid chromatograph y (HP LC). […]

[4] = tested on: primary AML PBMCs SP cells; assay: Hoechst 33342 side population (SP) cell assay; format: cell-based, human; conditions: 5 μM, 48 h; vehicle 0.5%
From the text: as §1, §2, §3, §4

CDK11 = target: T2, CDK11 (Homo sapiens, UniProt Q9BWU1); assay: KINOMEscan panel screen; format: binding; conditions: read-out: Percent Control(%)
T2 construct: purchased DiscoveRx KINOMEscan (Ambit Biosciences)

MAP3K4 = target: T3, MAP3K4 (Homo sapiens, UniProt Q9Y6R4); assay: KINOMEscan panel screen; format: binding; conditions: read-out: Percent Control(%)
T3 construct: purchased DiscoveRx KINOMEscan (Ambit Biosciences)

CAMK1 = target: T4, CAMK1 (Homo sapiens, UniProt Q14012); assay: KINOMEscan panel screen; format: binding; conditions: read-out: Percent Control(%)
T4 construct: purchased DiscoveRx KINOMEscan (Ambit Biosciences)

WNK1 = target: T5, WNK1 (Homo sapiens, UniProt Q9H4A3); assay: KINOMEscan panel screen; format: binding; conditions: read-out: Percent Control(%)
T5 construct: purchased DiscoveRx KINOMEscan (Ambit Biosciences)
T5 sequence (Q9H4A3 whole entry): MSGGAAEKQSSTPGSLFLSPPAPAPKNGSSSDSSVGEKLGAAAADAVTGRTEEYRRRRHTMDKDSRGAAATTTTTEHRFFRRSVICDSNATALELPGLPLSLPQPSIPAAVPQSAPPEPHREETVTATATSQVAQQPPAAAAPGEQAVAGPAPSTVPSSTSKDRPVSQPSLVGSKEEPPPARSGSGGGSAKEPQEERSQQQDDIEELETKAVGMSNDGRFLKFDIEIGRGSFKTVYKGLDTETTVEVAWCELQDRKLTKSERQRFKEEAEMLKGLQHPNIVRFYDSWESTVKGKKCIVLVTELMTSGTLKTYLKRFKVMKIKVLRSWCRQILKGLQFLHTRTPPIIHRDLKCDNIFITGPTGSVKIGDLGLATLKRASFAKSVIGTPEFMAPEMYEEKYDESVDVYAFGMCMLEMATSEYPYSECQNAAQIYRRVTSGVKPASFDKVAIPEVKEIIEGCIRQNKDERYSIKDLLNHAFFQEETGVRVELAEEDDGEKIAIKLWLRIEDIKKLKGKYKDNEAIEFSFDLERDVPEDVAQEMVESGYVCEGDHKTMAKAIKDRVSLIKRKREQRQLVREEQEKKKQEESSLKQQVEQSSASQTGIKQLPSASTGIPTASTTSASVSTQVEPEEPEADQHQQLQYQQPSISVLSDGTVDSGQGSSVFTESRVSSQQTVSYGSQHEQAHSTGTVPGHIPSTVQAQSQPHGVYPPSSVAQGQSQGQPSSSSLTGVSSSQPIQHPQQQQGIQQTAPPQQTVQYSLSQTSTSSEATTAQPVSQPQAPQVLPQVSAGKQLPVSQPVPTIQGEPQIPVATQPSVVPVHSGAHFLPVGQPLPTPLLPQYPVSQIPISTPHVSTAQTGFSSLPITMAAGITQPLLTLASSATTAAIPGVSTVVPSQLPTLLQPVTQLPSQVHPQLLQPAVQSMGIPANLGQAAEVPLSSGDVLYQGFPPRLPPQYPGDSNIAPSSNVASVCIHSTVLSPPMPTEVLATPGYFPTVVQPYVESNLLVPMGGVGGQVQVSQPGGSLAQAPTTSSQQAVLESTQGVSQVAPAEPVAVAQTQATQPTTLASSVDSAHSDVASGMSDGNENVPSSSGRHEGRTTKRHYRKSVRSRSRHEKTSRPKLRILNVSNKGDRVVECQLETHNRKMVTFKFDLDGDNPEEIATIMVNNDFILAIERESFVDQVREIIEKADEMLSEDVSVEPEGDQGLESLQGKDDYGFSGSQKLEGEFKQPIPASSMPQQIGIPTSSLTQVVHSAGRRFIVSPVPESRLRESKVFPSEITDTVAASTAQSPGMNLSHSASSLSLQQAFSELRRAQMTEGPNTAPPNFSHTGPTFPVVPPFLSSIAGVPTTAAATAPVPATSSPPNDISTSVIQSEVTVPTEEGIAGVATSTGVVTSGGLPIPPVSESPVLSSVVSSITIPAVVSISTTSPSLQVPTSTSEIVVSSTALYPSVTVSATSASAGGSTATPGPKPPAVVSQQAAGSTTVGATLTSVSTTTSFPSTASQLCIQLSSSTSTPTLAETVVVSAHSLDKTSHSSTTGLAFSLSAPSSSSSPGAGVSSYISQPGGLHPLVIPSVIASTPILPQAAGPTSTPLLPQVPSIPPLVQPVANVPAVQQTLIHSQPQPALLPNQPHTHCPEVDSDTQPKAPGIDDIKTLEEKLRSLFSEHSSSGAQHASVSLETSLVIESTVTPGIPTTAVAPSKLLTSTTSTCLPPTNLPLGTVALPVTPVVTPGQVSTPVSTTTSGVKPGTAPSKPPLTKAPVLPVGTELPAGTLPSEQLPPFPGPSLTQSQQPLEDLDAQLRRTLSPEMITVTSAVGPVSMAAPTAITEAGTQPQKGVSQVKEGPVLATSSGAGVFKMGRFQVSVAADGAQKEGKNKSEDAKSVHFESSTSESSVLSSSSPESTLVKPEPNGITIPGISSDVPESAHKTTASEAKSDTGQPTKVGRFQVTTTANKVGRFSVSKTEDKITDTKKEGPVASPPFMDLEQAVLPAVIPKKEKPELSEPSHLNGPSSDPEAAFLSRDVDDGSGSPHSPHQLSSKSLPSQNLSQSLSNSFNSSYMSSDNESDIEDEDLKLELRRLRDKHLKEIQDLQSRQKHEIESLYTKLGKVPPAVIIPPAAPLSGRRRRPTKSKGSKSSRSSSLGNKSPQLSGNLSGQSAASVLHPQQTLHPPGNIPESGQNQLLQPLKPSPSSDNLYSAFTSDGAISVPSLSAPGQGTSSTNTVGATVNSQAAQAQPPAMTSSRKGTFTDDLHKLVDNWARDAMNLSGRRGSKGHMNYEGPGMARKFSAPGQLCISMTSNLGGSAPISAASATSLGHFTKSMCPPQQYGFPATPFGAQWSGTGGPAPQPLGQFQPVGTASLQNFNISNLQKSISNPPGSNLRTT

BRAF(V600E) = target: T6, BRAF(V600E) (Homo sapiens, UniProt P15056, V600E); assay: KINOMEscan panel screen; format: binding; conditions: read-out: Percent Control(%)
T6 construct: purchased DiscoveRx KINOMEscan (Ambit Biosciences)
T6 sequence (P15056 whole entry V600E): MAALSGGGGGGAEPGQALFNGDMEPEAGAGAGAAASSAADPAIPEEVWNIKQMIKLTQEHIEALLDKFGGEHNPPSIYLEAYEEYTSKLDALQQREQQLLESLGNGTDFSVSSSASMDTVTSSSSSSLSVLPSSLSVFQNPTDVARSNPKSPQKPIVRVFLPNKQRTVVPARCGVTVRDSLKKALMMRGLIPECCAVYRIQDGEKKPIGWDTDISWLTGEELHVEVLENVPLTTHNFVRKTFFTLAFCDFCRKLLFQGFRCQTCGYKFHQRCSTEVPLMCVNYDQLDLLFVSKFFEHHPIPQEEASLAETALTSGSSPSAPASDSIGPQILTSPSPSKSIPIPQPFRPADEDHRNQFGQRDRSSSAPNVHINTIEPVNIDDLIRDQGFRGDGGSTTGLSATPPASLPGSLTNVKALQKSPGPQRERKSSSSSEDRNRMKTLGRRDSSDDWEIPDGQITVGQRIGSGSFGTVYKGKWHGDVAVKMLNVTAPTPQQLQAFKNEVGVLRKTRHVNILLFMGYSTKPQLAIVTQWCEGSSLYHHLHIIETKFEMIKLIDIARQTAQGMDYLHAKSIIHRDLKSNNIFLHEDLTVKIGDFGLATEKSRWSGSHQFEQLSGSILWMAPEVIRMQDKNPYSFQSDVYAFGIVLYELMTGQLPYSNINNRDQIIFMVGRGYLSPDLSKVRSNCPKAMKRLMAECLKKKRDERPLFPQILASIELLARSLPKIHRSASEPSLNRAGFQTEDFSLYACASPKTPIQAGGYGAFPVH

ERK4 = target: T7, ERK4 (Homo sapiens, UniProt P31152); assay: KINOMEscan panel screen; format: binding; conditions: read-out: Percent Control(%)
T7 construct: purchased DiscoveRx KINOMEscan (Ambit Biosciences)

RIPK1 = target: T8, RIPK1 (Homo sapiens, UniProt Q13546); assay: KINOMEscan panel screen; format: binding; conditions: read-out: Percent Control(%)
T8 construct: purchased DiscoveRx KINOMEscan (Ambit Biosciences)

NEK4 = target: T9, NEK4 (Homo sapiens, UniProt P51957); assay: KINOMEscan panel screen; format: binding; conditions: read-out: Percent Control(%)
T9 construct: purchased DiscoveRx KINOMEscan (Ambit Biosciences)

IKK-alpha = target: T10, IKK-alpha (Homo sapiens, UniProt O15111); assay: KINOMEscan panel screen; format: binding; conditions: read-out: Percent Control(%)
T10 construct: purchased DiscoveRx KINOMEscan (Ambit Biosciences)

SRPK2 = target: T11, SRPK2 (Homo sapiens, UniProt P78362); assay: KINOMEscan panel screen; format: binding; conditions: read-out: Percent Control(%)
T11 construct: purchased DiscoveRx KINOMEscan (Ambit Biosciences)
T11 sequence (P78362 whole entry): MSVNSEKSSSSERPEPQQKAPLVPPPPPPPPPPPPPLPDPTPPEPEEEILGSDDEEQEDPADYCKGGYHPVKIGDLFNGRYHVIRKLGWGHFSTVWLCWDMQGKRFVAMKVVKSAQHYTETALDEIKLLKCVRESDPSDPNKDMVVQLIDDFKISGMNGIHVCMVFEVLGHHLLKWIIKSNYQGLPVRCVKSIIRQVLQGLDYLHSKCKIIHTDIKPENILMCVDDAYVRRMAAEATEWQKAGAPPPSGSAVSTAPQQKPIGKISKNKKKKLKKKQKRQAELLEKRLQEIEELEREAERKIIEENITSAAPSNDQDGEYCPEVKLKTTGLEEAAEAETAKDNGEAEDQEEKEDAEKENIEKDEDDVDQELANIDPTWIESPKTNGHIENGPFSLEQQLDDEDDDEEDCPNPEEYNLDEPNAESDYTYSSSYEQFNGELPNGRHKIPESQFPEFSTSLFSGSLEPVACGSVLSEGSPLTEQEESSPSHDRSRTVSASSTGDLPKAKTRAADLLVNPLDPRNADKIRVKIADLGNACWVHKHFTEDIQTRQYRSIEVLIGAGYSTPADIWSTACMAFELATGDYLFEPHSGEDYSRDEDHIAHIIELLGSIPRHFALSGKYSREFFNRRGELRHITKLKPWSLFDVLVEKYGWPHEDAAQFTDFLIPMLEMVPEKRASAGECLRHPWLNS

SNARK = target: T12, SNARK (Homo sapiens, UniProt Q9H093); assay: KINOMEscan panel screen; format: binding; conditions: read-out: Percent Control(%)
T12 construct: purchased DiscoveRx KINOMEscan (Ambit Biosciences)
T12 sequence (Q9H093 whole entry): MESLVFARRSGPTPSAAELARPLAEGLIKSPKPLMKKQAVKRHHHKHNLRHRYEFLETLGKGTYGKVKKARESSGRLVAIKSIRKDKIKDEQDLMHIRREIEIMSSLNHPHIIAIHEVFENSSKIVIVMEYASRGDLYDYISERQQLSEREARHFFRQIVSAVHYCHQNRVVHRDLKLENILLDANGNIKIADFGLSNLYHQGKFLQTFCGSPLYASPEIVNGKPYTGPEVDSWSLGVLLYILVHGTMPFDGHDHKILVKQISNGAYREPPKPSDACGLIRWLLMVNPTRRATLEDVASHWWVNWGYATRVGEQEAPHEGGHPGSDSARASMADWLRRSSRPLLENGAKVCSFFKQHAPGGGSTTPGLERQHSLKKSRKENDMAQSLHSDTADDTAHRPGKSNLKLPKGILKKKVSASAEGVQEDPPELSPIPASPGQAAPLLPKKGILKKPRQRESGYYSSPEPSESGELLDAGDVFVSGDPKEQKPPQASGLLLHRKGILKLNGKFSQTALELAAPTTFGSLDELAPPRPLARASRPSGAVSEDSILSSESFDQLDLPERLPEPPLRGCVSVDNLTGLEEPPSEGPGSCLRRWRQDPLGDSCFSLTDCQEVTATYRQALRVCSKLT

MAP4K2 = target: T13, MAP4K2 (Homo sapiens, UniProt Q12851); assay: KINOMEscan panel screen; format: binding; conditions: read-out: Percent Control(%)
T13 construct: purchased DiscoveRx KINOMEscan (Ambit Biosciences)

A2058 = assay: MTT cell viability assay; conditions: Homo sapiens, A2058, 72 h
[5] = tested on: wnt8.1 RNA injected zebrafish embryos; assay: Zebrafish wnt8.1 rescue experiment; format: in vivo; conditions: 10 μM after microinjection of wnt8.1 RNA
FLT3-ITD = FLT3-ITD (Homo sapiens, UniProt P36888, ITD); assay: biochemical; format: binding
TNNI3K = target: T14, TNNI3K (Homo sapiens, UniProt Q59H18); assay: KINOMEscan panel screen; format: binding; conditions: read-out: Percent Control(%)
T14 construct: purchased DiscoveRx KINOMEscan (Ambit Biosciences)

PRKX = target: T15, PRKX (Homo sapiens, UniProt P51817); assay: KINOMEscan panel screen; format: binding; conditions: read-out: Percent Control(%)
T15 construct: purchased DiscoveRx KINOMEscan (Ambit Biosciences)

T1 sequence (Q13153 whole entry): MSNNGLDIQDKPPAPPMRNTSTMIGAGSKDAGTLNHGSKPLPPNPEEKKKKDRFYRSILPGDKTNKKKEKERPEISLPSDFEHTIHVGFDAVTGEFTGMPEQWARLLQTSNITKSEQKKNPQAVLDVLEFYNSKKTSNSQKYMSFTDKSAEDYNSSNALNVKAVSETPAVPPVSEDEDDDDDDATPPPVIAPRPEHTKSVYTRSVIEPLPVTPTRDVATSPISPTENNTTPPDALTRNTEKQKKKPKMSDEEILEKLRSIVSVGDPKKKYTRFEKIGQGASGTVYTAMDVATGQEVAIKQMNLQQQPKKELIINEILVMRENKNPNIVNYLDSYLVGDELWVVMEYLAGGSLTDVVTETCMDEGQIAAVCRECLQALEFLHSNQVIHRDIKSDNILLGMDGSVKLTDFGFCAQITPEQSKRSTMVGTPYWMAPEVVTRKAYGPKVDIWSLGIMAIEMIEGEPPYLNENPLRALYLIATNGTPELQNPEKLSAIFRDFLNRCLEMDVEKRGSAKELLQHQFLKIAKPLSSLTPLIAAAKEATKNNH

O=C(Nc1ccc(Oc2ncnc3[nH]ncc23)cc1)Nc1ccc(Cl)c(C(F)(F)F)c1 [Compound 1, 1-(4-(1H-pyrazolo[3,4-d]pyrimidin-4-yloxy)phenyl)-3-(4-chloro-3-(trifluoromethyl)phenyl)urea]
pIC50 (PAK1 [1]): < 5.00

CC(C)(C)c1cc(NC(=O)Nc2ccc(Oc3ncnc4[nH]ncc34)c(F)c2)no1 [SKLB-677, 1-(4-(1H-pyrazolo[3,4-d]pyrimidin-4-yloxy)-3-fluorophenyl)-3-(5-tert-butylisoxazol-3-yl)urea]
remaining binding at 10 µM (PAK1 [2]): 68%
expression of β-catenin target genes [3]: considerably decrease
SP cells (KG-1 SP cells): could almost eliminate SP cells
SP cells [4]: could almost eliminate SP cells
remaining binding at 10 µM (CDK11): 0.1%
remaining binding at 10 µM (MAP3K4): 69%
remaining binding at 10 µM (CAMK1): 21%
remaining binding at 10 µM (WNK1): 100%
remaining binding at 10 µM (BRAF(V600E)): 0.05%
remaining binding at 10 µM (ERK4): 98%
remaining binding at 10 µM (RIPK1): 31%
remaining binding at 10 µM (NEK4): 38%
remaining binding at 10 µM (IKK-alpha): 75%
remaining binding at 10 µM (SRPK2): 100%
remaining binding at 10 µM (SNARK): 66%
remaining binding at 10 µM (MAP4K2): 28%
pIC50 (A2058): < 5.00
embryos unaffected [5]: 65%
embryos with mild or moderate posteriorized phenotypes [5]: 35%
pKd (FLT3-ITD): 8.89
remaining binding at 10 µM (TNNI3K): 0%
remaining binding at 10 µM (PRKX): 44%
